Patent US8598086B2, “3-halo-(arly)-4-iminotetrahydropicolinates and their use as herbicides” (Dow AgroSciences, LLC., priority 2009, dated 2013)

Experiments:
Format in all cases: in vivo
[1] = tested on: ivyleaf morningglory (Ipomoea hederacea); assay: Post-emergent Test I; details: 10 d after treatment, scale 0 (no activity) to 100 (complete plant death)
Protocol: (§1) Post-emergent Test I: Weed seeds were obtained from commercial suppliers and planted into 5″-round pots containing soilless media mix (Metro-Mix 360®, Sun Gro Horticulture Canada CM Ltd. Vancouver, British Columbia) 8-12 d prior to application and cultured in a greenhouse equipped with supplemental light sources to provide a 16 h photoperiod at 24-29° C. All pots were surface irrigated. Compounds were dissolved in a 97:3 v/v (volume per volume) mixture of acetone and dimethyl sulfoxide (DMSO) and diluted to the appropriate concentration in a final application solution containing water, acetone, isopropyl alcohol, DMSO and Agri-dex (crop oil concentrate) in a 59:23:15:1.0:1.5 v/v ratio and 0.02% w/v (weight per volume) of Triton X-155 to obtain the spray solution containing the highest application rate. The high application rate was serial diluted with the above application solution to provide delivery of the compound at rates 1/2×, 1/4× and 1/8× of the highest rate (equivalent to 4.0, 2.0, 1.0, and 0.5 kg/ha, respectively). Formulated compound (2.7 mL) was applied using a DeVilbiss® compressed air sprayer at 2-4 pounds per square inch (psi) […]. Following treatment, pots were allowed to dry before being returned to the greenhouse for the duration of the experiment and subirrigated as needed. All pots were fertilized one time per week by subirrigating with Peters Peat-Lite Special® fertilizer (20-10-20). Phytotoxicity ratings were obtained 10 d after treatment. All evaluations were made on a scale of 0 to 100 where 0 represents no activity and 100 represents complete plant death.

[2] = tested on: giant foxtail (Setaria faberi); assay: Post-emergent Test I; details: 10 d after treatment, scale 0 (no activity) to 100 (complete plant death)
Protocol: as §1

wild oat (Avena fatua) [3] = assay: Post-emergent Test I; details: 10 d after treatment, scale 0 (no activity) to 100 (complete plant death)
Protocol: as §1

[4] = tested on: sunflower (Helianthus annuus); assay: Post-emergent Test I; details: 10 d after treatment, scale 0 (no activity) to 100 (complete plant death)
Protocol: as §1

[5] = tested on: ivyleaf morningglory (Ipomoea hederacea); assay: Pre-emergent Test I; details: 14 d after treatment, scale 0 (no herbicidal effect) to 100 (plant death or lack of emergence)
Protocol: (§2) Pre-emergent Test I: Weed seeds were obtained from commercial suppliers and planted into round plastic pots (5-inch diameter) containing silt loam soil (23% sand, 52% silt, 29% clay, 2.9% organic matter, CEC 16.6, pH 7.2). After planting, all pots were subirrigated 16 h prior to compound application. Compounds were dissolved in a 97:3 v/v mixture of acetone and DMSO and diluted to the appropriate concentration in a final application solution containing water, acetone, isopropyl alcohol, DMSO and Agri-dex (crop oil concentrate) in a 59:23:15:1.0:1.5 v/v ratio and 0.02% w/v of Triton X-155 to obtain the spray solution containing the highest application rate. The high application rate was serial diluted with the above application solution to provide delivery of the compound at rates 1/2×, 1/4× and 1/8× of the highest rate (equivalent to 4.0, 2.0, 1.0, and 0.5 kg/ha, respectively). Formulated compound (2.7 mL) was pipetted evenly over the soil surface followed by incorporation with water (15 mL). Following treatment, pots were returned to the greenhouse for the duration of the experiment. The greenhouse was programmed for an approximate 15 h photoperiod which was maintained at about 23-29° C. during the day and 22-28° C. during the night. Nutrients and water were added on a regular basis through surface irrigation and supplemental lighting was provided with overhead metal halide 1000-Watt lamps as necessary. Herbicidal effect ratings were obtained 14 d after treatment. All evaluations were made relative to appropriate controls on a scale of 0 to 100 where 0 represents no herbicidal effect and 100 represents plant death or lack of emergence from the soil.

[6] = tested on: pigweed (Amaranthus retroflexus); assay: Pre-emergent Test I; details: 14 d after treatment, scale 0 (no herbicidal effect) to 100 (plant death or lack of emergence)
Protocol: as §2

[7] = tested on: giant foxtail (Setaria faberi); assay: Pre-emergent Test I; details: 14 d after treatment, scale 0 (no herbicidal effect) to 100 (plant death or lack of emergence)
Protocol: as §2

wild oat (Avena fatua) [8] = assay: Pre-emergent Test I; details: 14 d after treatment, scale 0 (no herbicidal effect) to 100 (plant death or lack of emergence)
Protocol: as §2

[9] = tested on: sunflower (Helianthus annuus); assay: Pre-emergent Test I; details: 14 d after treatment, scale 0 (no herbicidal effect) to 100 (plant death or lack of emergence)
Protocol: as §2

[10] = tested on: pigweed (Amaranthus retroflexus); assay: Post-emergent Test I; details: 10 d after treatment, scale 0 (no activity) to 100 (complete plant death)
Protocol: as §1

[11] = tested on: lambsquarters (Chenopodium album); assay: Post-emergent Test II; details: after 14 d, 0 = no injury, 100 = complete kill
Protocol: (§3) Post-emergent Test II: Seeds or nutlets of the desired test plant species were planted in Sun Gro Metro-Mix® 360 planting mixture, which typically has a pH of 6.0 to 6.8 and an organic matter content of about 30 percent, in plastic pots with a surface area of 64 square centimeters. When required to ensure good germination and healthy plants, a fungicide treatment and/or other chemical or physical treatment was applied. The plants were grown for 7-21 d in a greenhouse with an approximate 15 h photoperiod which was maintained at about 23-29° C. during the day and 22-28° C. during the night. Nutrients and water were added on a regular basis and supplemental lighting was provided with overhead metal halide 1000-Watt lamps as necessary. The plants were employed for testing when they reached the first or second true leaf stage.
(§4) A weighed amount, determined by the highest rate to be tested, of each test compound was placed in a 25 mL glass vial and was dissolved in 4 mL of a 97:3 v/v mixture of acetone and DMSO to obtain concentrated stock solutions. […] The concentrated stock solutions obtained were diluted with 20 mL of an aqueous mixture containing acetone, water, isopropyl alcohol, DMSO, Atplus 411F crop oil concentrate, and Triton® X-155 surfactant in a 48.5:39:10:1.5:1.0:0.02 v/v ratio to obtain spray solutions containing the highest application rates. Additional application rates were obtained by serial dilution of 12 mL of the high rate solution into a solution containing 2 mL of 97:3 v/v mixture of acetone and DMSO and 10 mL of an aqueous mixture containing acetone, water, isopropyl alcohol, DMSO, Atplus 411F crop oil concentrate, and Triton X-155 surfactant in a 48.5:39:10:1.5:1.0:0.02 v/v ratio to obtain 1/2×, 1/4×, 1/8× and 1/16× rates of the high rate. Compound requirements are based upon a 12 mL application volume at a rate of 187 liters per hectare (L/ha). Formulated compounds were applied to the plant material with an overhead Mandel track sprayer equipped with 8002E nozzles calibrated to deliver 187 L/ha over an application area of 0.503 square meters at a spray height of 18 inches (43 cm) above the average plant canopy height. Control plants were sprayed in the same manner with the solvent blank.
(§5) The treated plants and control plants were placed in a greenhouse as described above and watered by subirrigation to prevent wash-off of the test compounds. After 14 d, the condition of the test plants as compared with that of the untreated plants was determined visually and scored on a scale of 0 to 100 percent where 0 corresponds to no injury and 100 corresponds to complete kill.

[12] = tested on: velvetleaf (Abutilon theophrasti); assay: Post-emergent Test II; details: after 14 d, 0 = no injury, 100 = complete kill
Protocol: as §3, §4, §5

[13] = tested on: barnyardgrass (Echinochloa crus-galli); assay: Post-emergent Test II; details: after 14 d, 0 = no injury, 100 = complete kill
Protocol: as §3, §4, §5

[14] = tested on: bindweed (Polygonum convolvulus); assay: Post-emergent Test II; details: after 14 d, 0 = no injury, 100 = complete kill
Protocol: as §3, §4, §5

rice (Oryza sativa) = assay: Post-emergent Test II; details: after 14 d, 0 = no injury, 100 = complete kill
Protocol: as §3, §4, §5

SMILES: CCOC(=O)C1=C(Cl)/C(=N/OS(C)(=O)=O)CC(c2ccc(Cl)cc2F)N1 (stereo not drawn) [Compound 26, 3-chloro-6-(4-chloro-2-fluorophenyl)-4-[(E)-methanesulfonyloximino]-1,4,5,6-tetrahydropyridine-2-carboxylic acid ethyl ester]
- Phytotoxicity rating IPOHE ([1]; 3760 g ai/ha): 100
- Phytotoxicity rating SETFA ([2]; 3760 g ai/ha): 100
- Phytotoxicity rating AVEFA (wild oat (Avena fatua) [3]; 3760 g ai/ha): 95
- Phytotoxicity rating HELAN ([4]; 3760 g ai/ha): 100
- Herbicidal effect rating IPOHE ([5]; 3760 g ai/ha): 100
- Herbicidal effect rating AMARE ([6]; 3760 g ai/ha): 100
- Herbicidal effect rating SETFA ([7]; 3760 g ai/ha): 70
- Herbicidal effect rating AVEFA (wild oat (Avena fatua) [8]; 3760 g ai/ha): 10
- Herbicidal effect rating HELAN ([9]; 3760 g ai/ha): 70

SMILES: COC(=O)C1=C(Cl)/C(=N/OS(C)(=O)=O)CC(c2ccc(Cl)c(OC)c2F)N1 (stereo not drawn) [Compound 29, 3-Chloro-6-(4-chloro-2-fluoro-3-methoxyphenyl)-4-[(E)-methanesulfonyloximino]-1,4,5,6-tetrahydropyridine-2-carboxylic acid methyl ester]
- Phytotoxicity rating IPOHE ([1]; 4000 g ai/ha): 95
- Phytotoxicity rating AMARE ([10]; 4000 g ai/ha): 100
- Phytotoxicity rating SETFA ([2]; 4000 g ai/ha): 90
- Phytotoxicity rating AVEFA (wild oat (Avena fatua) [3]; 4000 g ai/ha): 30
- Phytotoxicity rating HELAN ([4]; 4000 g ai/ha): 90
- Visual injury score CHEAL ([11]; 140 g ai/ha): 100%
- Visual injury score ABUTH ([12]; 140 g ai/ha): 100%
- Visual injury score ECHCG ([13]; 140 g ai/ha): 100%
- Visual injury score POLCO ([14]; 140 g ai/ha): 90%
- Visual injury score ORYSA (rice (Oryza sativa); 140 g ai/ha): 0%
- Herbicidal effect rating IPOHE ([5]; 4000 g ai/ha): 95
- Herbicidal effect rating AMARE ([6]; 4000 g ai/ha): 100
- Herbicidal effect rating SETFA ([7]; 4000 g ai/ha): 60
- Herbicidal effect rating AVEFA (wild oat (Avena fatua) [8]; 4000 g ai/ha): 30
- Herbicidal effect rating HELAN ([9]; 4000 g ai/ha): 80

SMILES: COC(=O)C1=C(Cl)/C(=N/OS(=O)(=O)c2ccc(C)cc2)CC(c2ccc(Cl)c(OC)c2F)N1 (stereo not drawn) [Compound 31, 3-Chloro-6-(4-chloro-2-fluoro-3-methoxyphenyl)-4-[(E)-p-toluenesulfonyloximino]-1,4,5,6-tetrahydropyridine-2-carboxylic acid methyl ester]
- Phytotoxicity rating IPOHE ([1]; 4000 g ai/ha): 90
- Phytotoxicity rating SETFA ([2]; 4000 g ai/ha): 80
- Phytotoxicity rating AVEFA (wild oat (Avena fatua) [3]; 4000 g ai/ha): 40
- Phytotoxicity rating HELAN ([4]; 4000 g ai/ha): 90
- Herbicidal effect rating IPOHE ([5]; 4000 g ai/ha): 100
- Herbicidal effect rating AMARE ([6]; 4000 g ai/ha): 100
- Herbicidal effect rating SETFA ([7]; 4000 g ai/ha): 10
- Herbicidal effect rating AVEFA (wild oat (Avena fatua) [8]; 4000 g ai/ha): 10
- Herbicidal effect rating HELAN ([9]; 4000 g ai/ha): 100

SMILES: CCOC(=O)C1=C(Cl)/C(=N/OS(C)(=O)=O)CC(c2ccc(Cl)c(OC)c2F)N1 (stereo not drawn) [Compound 30, 3-Chloro-6-(4-chloro-2-fluoro-3-methoxyphenyl)-4-[(E)-methanesulfonyloximino]-1,4,5,6-tetrahydropyridine-2-carboxylic acid ethyl ester]
- Phytotoxicity rating IPOHE ([1]; 3400 g ai/ha): 95
- Phytotoxicity rating AMARE ([10]; 3400 g ai/ha): 100
- Phytotoxicity rating SETFA ([2]; 3400 g ai/ha): 85
- Phytotoxicity rating AVEFA (wild oat (Avena fatua) [3]; 3400 g ai/ha): 30
- Phytotoxicity rating HELAN ([4]; 3400 g ai/ha): 90
- Herbicidal effect rating IPOHE ([5]; 3400 g ai/ha): 100
- Herbicidal effect rating AMARE ([6]; 3400 g ai/ha): 100
- Herbicidal effect rating SETFA ([7]; 3400 g ai/ha): 100
- Herbicidal effect rating AVEFA (wild oat (Avena fatua) [8]; 3400 g ai/ha): 95
- Herbicidal effect rating HELAN ([9]; 3400 g ai/ha): 100

SMILES: COC(=O)C1=C(Br)/C(=N/OS(C)(=O)=O)CC(c2ccc(Cl)c(OC)c2F)N1 (stereo not drawn) [Compound 32, 3-bromo-6-(4-chloro-2-fluoro-3-methoxyphenyl)-4-[(E)-methanesulfonyloximino]-1,4,5,6-tetrahydropyridine-2-carboxylic acid methyl ester]
- Visual injury score CHEAL ([11]; 140 g ai/ha): 100%
- Visual injury score ABUTH ([12]; 140 g ai/ha): 100%
- Visual injury score ECHCG ([13]; 140 g ai/ha): 90%
- Visual injury score POLCO ([14]; 140 g ai/ha): 90%
- Visual injury score ORYSA (rice (Oryza sativa); 140 g ai/ha): 15%

SMILES: COC(=O)C1=C(Cl)/C(=N/OS(C)(=O)=O)CC(c2ccc(Cl)cc2)N1 (stereo not drawn) [Compound 27, 3-Chloro-6-(4-chlorophenyl)-4-[(E)-methanesulfonyloximino]-1,4,5,6-tetrahydropyridine-2-carboxylic acid methyl ester]
- Phytotoxicity rating IPOHE ([1]; 3960 g ai/ha): 85
- Phytotoxicity rating AMARE ([10]; 3960 g ai/ha): 100
- Phytotoxicity rating SETFA ([2]; 3960 g ai/ha): 90
- Phytotoxicity rating AVEFA (wild oat (Avena fatua) [3]; 3960 g ai/ha): 75
- Phytotoxicity rating HELAN ([4]; 3960 g ai/ha): 95
- Herbicidal effect rating IPOHE ([5]; 3960 g ai/ha): 100
- Herbicidal effect rating AMARE ([6]; 3960 g ai/ha): 100
- Herbicidal effect rating SETFA ([7]; 3960 g ai/ha): 100
- Herbicidal effect rating AVEFA (wild oat (Avena fatua) [8]; 3960 g ai/ha): 20
- Herbicidal effect rating HELAN ([9]; 3960 g ai/ha): 100

SMILES: COC(=O)C1=C(Cl)/C(=N/OC(C)=O)CC(c2ccc(Cl)c(OC)c2F)N1 (stereo not drawn) [Compound 35, 3-chloro-6-(4-chloro-2-fluoro-3-methoxyphenyl)-4-[(E)-acetoxyoximino]-3-chloro-1,4,5,6-tetrahydropyridine-2-carboxylic acid methyl ester]
- Visual injury score CHEAL ([11]; 70 g ai/ha): 100%
- Visual injury score ABUTH ([12]; 70 g ai/ha): 100%
- Visual injury score ECHCG ([13]; 70 g ai/ha): 90%
- Visual injury score POLCO ([14]; 70 g ai/ha): 100%
- Visual injury score ORYSA (rice (Oryza sativa); 70 g ai/ha): 0%
